Experimental data published in the OligoGym collection.
These antisense oligonucleotides have a phosphorothioate backbone; sugars and methylation of C are not fully specified.

target: XIAP; conditions: ASO
Also: test concentration or dose not given here.

Compared with AAAAGTCATCTTCTCTTGAA, AAACTGTTAAAAGTCATCTT is higher in remaining target (mRNA or protein) (fraction of control): 0.58 for the first, 0.81 for the second.

Going from AAGTCATCTTCTCTTGAAAA to AATCTGCAATTTGGGGATAC, the remaining target (mRNA or protein) (fraction of control) rises from 0.6 to 0.93.

First: ACAATACATGGCAGGGTTCC
Second: ACTGTTAAAAGTCATCTTCT
The remaining target (mRNA or protein) (fraction of control) of the first is lower: 0.41 for the first, 0.87 for the second.

Going from AGAAAATGGACAGAATCCTA to AGCATGTTGTTCCCAAGGGT, the remaining target (mRNA or protein) (fraction of control) falls from 0.74 to 0.54.

Compared with ATTCGTATAGCTTCTTGTAC, ATTTATAGTTGCTCCCAGAT is lower in remaining target (mRNA or protein) (fraction of control): 0.61 for the first, 0.58 for the second.

First: ATTTGTTAAGCCTATCTGAA
Second: CAAAACTGTTAAAAGTCATC
The remaining target (mRNA or protein) (fraction of control) of the first is lower: 0.66 for the first, no less than 1 for the second.

Going from CAACTAAAACACTGCCATGT to CACTCCTCAAGTGAATGAGT, the remaining target (mRNA or protein) (fraction of control) falls from 0.54 to 0.52.

First: CATCTTCTCTTGAAAATAGG
Second: CCAGGCACGATCACAAGGTT
The remaining target (mRNA or protein) (fraction of control) of the first is lower: 0.9 for the first, no less than 1 for the second.

Compared with CTATCATTAAATACGCTTTC, GAAATTCCTATCAGAACTCA is lower in remaining target (mRNA or protein) (fraction of control): 0.99 for the first, 0.76 for the second.

GATGTCTGCAGGTACACAAG and GCATGACAACTAAAGCACCG are the same in remaining target (mRNA or protein) (fraction of control): 0.56 for the first, 0.56 for the second.

Compared with GGTTAGGTTACTGATGTTAG, GTCATCTTCTCTTGAAAATA is lower in remaining target (mRNA or protein) (fraction of control): no less than 1 for the first, 0.72 for the second.

Going from TAATGGAATTCAATCCTGAT to TAGAGTCCAGCACTTGCTAA, the remaining target (mRNA or protein) (fraction of control) falls from 0.83 to 0.4.

First: TAGCAAAAGTTTTTAATCTA
Second: TAGGACTTGTCCACCTTTTC
The remaining target (mRNA or protein) (fraction of control) of the first is higher: 0.99 for the first, 0.58 for the second.

Compared with TATGATGCTTCTTATTCTTA, TATTAACAACATACATACTT is higher in remaining target (mRNA or protein) (fraction of control): 0.65 for the first, no less than 1 for the second.

First: TCCACCAGCATGGAACAATT
Second: TCCTTGTTAACTGAGTATAT
The remaining target (mRNA or protein) (fraction of control) of the first is higher: 0.71 for the first, 0.69 for the second.

Compared with TCTGCATGTGTCTCAGATGG, TCTTCTCTTGAAAATAGGAC is higher in remaining target (mRNA or protein) (fraction of control): 0.42 for the first, 0.96 for the second.

Compared with TGACTAGATGTCCACAAGGA, TGCCTACTATAGAGTTAGAT is lower in remaining target (mRNA or protein) (fraction of control): 0.61 for the first, 0.6 for the second.

First: TGCTCTTCAGTACTAATCTC
Second: TGTTAAAAGTCATCTTCTCT
The remaining target (mRNA or protein) (fraction of control) of the first is lower: 0.58 for the first, 0.84 for the second.

TTAAAAGTCATCTTCTCTTG and TTCAAAACTGTTAAAAGTCA cannot be ordered by remaining target (mRNA or protein) (fraction of control): no less than 1 for the first, no less than 1 for the second.

Compared with TTGAAAATAGGACTTGTCCA, TTGTACTGACCATTCTGGAT is lower in remaining target (mRNA or protein) (fraction of control): 0.93 for the first, 0.47 for the second.

target: RHOB; conditions: ASO

Compared with AACTCGTCCTTACTGAAC, AAGCACATGAGAATGACG is higher in remaining target (mRNA or protein) (fraction of control): 0.7 for the first, no less than 1 for the second.

ACCTCGCGCACGCCTTCC and ACGGGTTCCTGCTTCATG cannot be ordered by remaining target (mRNA or protein) (fraction of control): no less than 1 for the first, no less than 1 for the second.

First: ACTGAACACGATCAGCAG
Second: AGACCTCGCGCACGCCTT
The remaining target (mRNA or protein) (fraction of control) of the first is higher: no less than 1 for the first, 0.84 for the second.

AGCACCTTGCAGCAGTTG and ATGTTCTCCAGCGAGTCC cannot be ordered by remaining target (mRNA or protein) (fraction of control): no less than 1 for the first, no less than 1 for the second.

First: CAGCAGTTGATGCAGCCG
Second: CATAGTTCTCGAAGACGG
The remaining target (mRNA or protein) (fraction of control) of the first is lower: 0.69 for the first, no less than 1 for the second.

Compared with CCACCACCAGCTTCTTGC, CCAGCTCTGTGCGGACAT is lower in remaining target (mRNA or protein) (fraction of control): no less than 1 for the first, 0.79 for the second.

target: TERF1; conditions: ASO

First: AAACACAATCAGTCTTCGCT
Second: AAGCTTTTACAAACACAATC
The remaining target (mRNA or protein) (fraction of control) of the first is lower: 0.93 for the first, no less than 1 for the second.

AATCAGTCTTCGCTGTCTGA and ACAAACACAATCAGTCTTCG cannot be ordered by remaining target (mRNA or protein) (fraction of control): no less than 1 for the first, no less than 1 for the second.

First: ACAATCAGTCTTCGCTGTCT
Second: ACACAATCAGTCTTCGCTGT
The remaining target (mRNA or protein) (fraction of control) of the first is lower: 0.57 for the first, 0.64 for the second.

Compared with ACTGGCAAGCTGTTAGACTG, AGGTTTATCTTGAGAAGTTA is higher in remaining target (mRNA or protein) (fraction of control): 0.49 for the first, no less than 1 for the second.

Going from AGTCTTCGCTGTCTGAGGAA to ATATTAAATGAAGGTATCAG, the remaining target (mRNA or protein) (fraction of control) rises from 0.59 to no less than 1.

First: CAAACAAAATGCAGTGATCA
Second: CACAGTCCCCAGTAGGTAAG
The remaining target (mRNA or protein) (fraction of control) of the first is higher: 0.84 for the first, 0.56 for the second.

Going from CATCCTCCGCCATGTTAAAT to CCAAATCATCAGGGCTGATT, the remaining target (mRNA or protein) (fraction of control) rises from 0.73 to no less than 1.

First: CTCGGAGCGGCCGTCGCGGA
Second: CTCGGCCACCAGGCCCGCGT
The remaining target (mRNA or protein) (fraction of control) of the first is higher: 0.9 for the first, 0.82 for the second.

Compared with CTGAGGAAACATCCTCCGCC, CTTTCTGAGAGATTATCAT is higher in remaining target (mRNA or protein) (fraction of control): 0.68 for the first, 0.93 for the second.

First: GAAACCCCGCCTCTACTAAA
Second: GACATCAAGATGATCATAGT
The remaining target (mRNA or protein) (fraction of control) of the first is lower: 0.74 for the first, no less than 1 for the second.

Compared with GAGGTTCAGTGAGCTGAAAT, GCAGGGTTCAACAAATTTAC is lower in remaining target (mRNA or protein) (fraction of control): 0.81 for the first, 0.75 for the second.

Compared with GCCATGTTAAATGGCTCGAT, GCCATTTTCCATACAAACAG is higher in remaining target (mRNA or protein) (fraction of control): 0.61 for the first, 0.81 for the second.

Compared with GCTTTTACAAACACAATCAG, GGCAGGTTTGTTAGCTGAGT is higher in remaining target (mRNA or protein) (fraction of control): 0.73 for the first, no less than 1 for the second.

Compared with GGCTGACTCTTTGAAACAGG, GGGTTACGTTACAGGGTTGA is higher in remaining target (mRNA or protein) (fraction of control): 0.6 for the first, no less than 1 for the second.

Going from TAAGAAAAGATTCTTGTGAG to TAGGCATCAGGTTATAAAGA, the remaining target (mRNA or protein) (fraction of control) rises from 0.71 to 0.73.

First: TCAGTCTTCGCTGTCTGAGG
Second: TCTGCTCCTCAGTAGGGTCG
The remaining target (mRNA or protein) (fraction of control) of the first is lower: 0.46 for the first, 0.68 for the second.

First: TTAAACACTGGAACAAAAGT
Second: TTAACTCTGGTAGCACAAAC
The remaining target (mRNA or protein) (fraction of control) of the first is higher: no less than 1 for the first, 0.59 for the second.

Compared with TTACAAACACAATCAGTCTT, TTACTCTGTACATTTATCAT is higher in remaining target (mRNA or protein) (fraction of control): 0.77 for the first, no less than 1 for the second.

Going from TTTAGACCAGTTTCCCTCTC to TTTAGGCAGGACGCAGTGGC, the remaining target (mRNA or protein) (fraction of control) falls from 0.68 to 0.47.

Going from TTTGTCCCATGGGTAATACT to TTTTACAAACACAATCAGTC, the remaining target (mRNA or protein) (fraction of control) falls from 0.97 to 0.77.

target: MAP3K5; conditions: ASO

First: TGTCAACCCCTTCATGAAGC
Second: TTCGTCCGCCTCCGTGCTCA
The remaining target (mRNA or protein) (fraction of control) of the first is higher: 0.19 for the first, 0.18 for the second.

TTCTAAAGTCTCTACCAGCT was tested, and the remaining target (mRNA or protein) (fraction of control) was 0.24.

target: PTPN6; conditions: ASO

Going from AACCACCCACGGGACAGCAT to ACCCACGGGACAGCATCTCT, the remaining target (mRNA or protein) (fraction of control) rises from 0.47 to no less than 1.

Compared with ACGGGACAGCATCTCTCTGT, AGCAGGGTCTCTGCATCCAG is higher in remaining target (mRNA or protein) (fraction of control): 0.65 for the first, no less than 1 for the second.

First: AGGCTCTCACGCACAAGAAA
Second: ATGTGGCCATGGTACCACCT
The remaining target (mRNA or protein) (fraction of control) of the first is lower: 0.66 for the first, no less than 1 for the second.

Going from CAAACTCTCAAACTCCTCCC to CAGCATCTCTCTGTAGGGAG, the remaining target (mRNA or protein) (fraction of control) falls from 0.88 to 0.81.

First: CCACCCACGGGACAGCATCT
Second: CCACCTGAGGACAGCACCGC
The remaining target (mRNA or protein) (fraction of control) of the first is higher: no less than 1 for the first, 0.84 for the second.

CCACGGGACAGCATCTCTCT and CCCTGACGGAGAGCGAGAAG cannot be ordered by remaining target (mRNA or protein) (fraction of control): no less than 1 for the first, no less than 1 for the second.

First: CGACTCCTGGCCCTTCTGCG
Second: CGCATTTGTTCCGGCCTTTC
The remaining target (mRNA or protein) (fraction of control) of the first is lower: 0.61 for the first, 0.69 for the second.

Going from CGCTCACTTCCTCTTGAGGG to CGTGAGGCTGTCGAAGGTCT, the remaining target (mRNA or protein) (fraction of control) rises from 0.69 to 0.9.

Going from CTCTTGAGGGAACCCTTGCT to GAAACCACCCACGGGACAGC, the remaining target (mRNA or protein) (fraction of control) rises from 0.49 to no less than 1.

Compared with GACAGCATCTCTCTGTAGGG, GACCCCATGGTCGGGCCAGC is higher in remaining target (mRNA or protein) (fraction of control): 0.78 for the first, no less than 1 for the second.

Compared with GAGGACAGCACCGCTCACTT, GATGAACTTGTACTGCGCCT is lower in remaining target (mRNA or protein) (fraction of control): 0.88 for the first, 0.84 for the second.

First: GATGTCAATGTCACAGTCCA
Second: GCATCTCTCTGTAGGGAGGG
The remaining target (mRNA or protein) (fraction of control) of the first is lower: 0.73 for the first, 0.96 for the second.

First: GCCACGCCATCTGCCAGAAG
Second: GCCAGGTGAGGAAGAACCGC
The remaining target (mRNA or protein) (fraction of control) of the first is lower: 0.7 for the first, no less than 1 for the second.

Compared with GCCTGGGCCAGCCTTGGGCT, GCGCCTGAGGCCTCCTCAAT is lower in remaining target (mRNA or protein) (fraction of control): no less than 1 for the first, 0.84 for the second.

GGCCTGGCTGGGCTATATAC and GGGACAGCATCTCTCTGTAG cannot be ordered by remaining target (mRNA or protein) (fraction of control): no less than 1 for the first, no less than 1 for the second.

Compared with GGGAGAATGTTCTTGTAGCG, GTGCAGGTTCTCATACACAT is lower in remaining target (mRNA or protein) (fraction of control): no less than 1 for the first, 0.64 for the second.

Compared with TCAGAGTCGCAAACTTCTCC, TCAGCCGCATTCACCCTCGT is lower in remaining target (mRNA or protein) (fraction of control): no less than 1 for the first, 0.54 for the second.

Compared with TCATGCTCCCCGCAGTTGGT, TCTCATCAGGGCCTAGCAGC is higher in remaining target (mRNA or protein) (fraction of control): 0.4 for the first, 0.74 for the second.

First: TGAGTCTGTCCATCGCGAAA
Second: TGCCGGCGCTGCAGTGCACG
The remaining target (mRNA or protein) (fraction of control) of the first is lower: 0.63 for the first, 0.85 for the second.

Going from TGGTGCCGTCGCGGTCCTGC to TTCAGTGATCCCAGGGCTTT, the remaining target (mRNA or protein) (fraction of control) rises from 0.29 to 0.75.
